The values below come from patent US20240208997A1, “CYCLIC BENZIMIDAZOLE DERIVATIVES AS CGAS INHIBITORS” (Boehringer Ingelheim International GmbH, priority 2022, published 2024).

Assay [1] deals with IFN induction in virus-stimulated THP1 cells. Description: Human cGAS cell assay, virus-stimulated THP1-Dual cells (THP1(vir) IC50). Conditions: THP-1, 18 h, Table 1, baculovirus-stimulated THP1-Dual cells, Lucia luciferase, 18 h, read-out: THP(vir) IC50. In kind it is cell-based. The gist of the method: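 THP1-Dual cells with an IRF-driven Lucia luciferase reporter, activated by baculovirus-delivered dsDNA to drive cGAS, with 8-point compound series from 10 µM top (~1:5 steps) in 1% DMSO. After 18 h at 37 °C, luminescence read; IC50 via 4-parameter logistic against virus-free low control.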

In assay [2] the test system is IFN induction in cGAMP-stimulated THP1 cells. The experiment in a line: cGAMP stimulated counter cell assay in THP1-Dual cells (THP1(cGAMP) IC50). In kind it is cell-based, human. The following applies: Table 1; for IC50: Homo sapiens, THP-1, counter assay, 10 μM cGAMP stimulation, read-out: THP(cGAMP) IC50; for Ratio THP(cGAMP) IC50/THP(vir) IC50: selectivity for cGAS-inhibition. The gist of the method: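 THP1-Dual cells (5000/well, RPMI/10% FCS) stimulated with cGAMP to activate the pathway directly downstream of cGAS; compounds at 8 concentrations, top 10 μM, ~1:5 steps, 1% DMSO. After 18 h at 37 °C, Lucia luciferase luminescence read; IC50 from 4-parameter logistic fit normalised to low and high controls.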

Assay [3] relates to IFN induction in dsDNA-stimulated human whole blood. The experiment in a line: Human whole blood assay (hWB IC50), dsDNA stimulated, IFNα2α production. Conditions: Table 1. In kind it is cell-based. On the procedure:
6.3 Method: Human Whole Blood Assay (Human WB IC50)
For the detection of cellular cGAS activity human whole blood was stimulated by transfection with double stranded DNA. Pathway activity was monitored by measuring the IFNα2α production.
Compounds were delivered as 10 mM DMSO solution and serially diluted and transferred to the 96-well cell culture plate (Corning #3595), prefilled with 20 μl OptiMEM (Gibco, #11058-021) in each well, using an Echo acoustic dispenser. Typically, 8 concentrations were used with the highest concentration at 10 μM in the final assay volume followed by ^˜1:5 dilution steps. DMSO concentration was set to 0.1% in the final assay volume. The 96-well assay plate contained 10 test compounds, and DMSO in control wells.
Collection of human whole blood from 3 or more healthy donors (male or female, no medication for 7 days except contraceptive and thyroxine) as Na-Citrate blood (e.g. 3.8% in Monovettes from Sarstedt) was conducted in parallel. Whole blood was kept at room temperature for a maximum of 3 hours after collection until use in the assay. 160 μl of the whole blood samples was transferred to each well of the 96-well assay plates filled with compound/OptiMEM. All assay plates were prepared as duplicates with blood from different donors. Blood plates were kept at room temperature for 60 minutes and continuous shaking with 450 rpm, covered with the lid, but not sealed.
20 μl OptiMEM and 9.6:1 Fugene was added to all low control wells.
After covering assay plates with aera seals and the lid, blood plates were kept at room temperature for 30 minutes and continuous shaking with 450 rpm, followed by an overnight incubation of 22 h at 37° C. in the incubator, without shaking.
For the detection of IFNα-2α in human plasma, the biotinylated capture antibody (Antibody set IFNA2, Meso Scale Diagnostics #B21VH-3, including coating and capture antibody) was diluted 1:17.5 in Diluent 100 (Meso Scale Diagnostics #R50AA-4), according to the manufacturer's directions. U-Plex MSD GOLD 96-well Small Spot Strepavidin SECTOR Plates (Meso Scale Diagnostics #L45SA-5) were coated with 25 μl diluted capture antibody. Coated plates were incubated for 60 min at room temperature under continuous shaking at 700 rpm. MSD IFNα-2α plates were washed three times with 150 μl wash buffer (1× HBSS, 0.05% Tween).
After blocking the plates with 100 μl block solution/well (1× HBSS with 0.2% Tween, 2% BSA) for 60 min at room temperature and continuous shaking at 700 rpm, plates were emptied as dry as possible by dumping just before continuing with the human plasma.
Whole Blood assay plates were centrifuged at 1600 rpm for 10 minutes. 25 μl of supernatant was transferred with a pipetting robot from each whole blood plate to the corresponding IFNα-2α plate. Plates were sealed with microplate seals and kept at room temperature again under continuous shaking at 700 rpm for two hours.
Next MSD IFNα-2α plates were washed three times with 150 μl wash buffer (1× HBSS, 0.05% Tween), before adding 25 μl MSD SULFO-TAG IFNα-2α Antibody solution (1:100 diluted in Diluent 3 (Meso Scale Diagnostics #R50AP-2) to each well of the plates.
Afterwards plates were sealed with microplate seals and kept at room temperature again under continuous shaking at 700 rpm for two hours. Finally, MSD IFNα-2α plates were washed three times with 150 μl wash buffer (1× HBSS, 0.05% Tween). 150 μl 2× Read buffer was added to each well and plates were immediately measured with the MSD Sector S600 Reader using the vendor barcode.
Data Evaluation and Calculation:
For data evaluation and calculation, % control calculation of each well was based on the mean of high (DNA stimulated control) and mean of low (unstimulated control) controls by using the following formula:
[counts(sample)−counts(low))/(counts(high)−counts(low))]*100
The IC50-values were calculated using the standard 4 parameter logistic regression formula. […]

Each structure is given as a SMILES string.

As for `C[C@@H]1CN2CC[C@H]1n1c(nc3ccccc31)O[C@H]1C[C@@H](C(=O)O)N(C1)c1nc(nc3c1oc1ccccc13)CCCCCOC2=O` [Example 10.01], the figures for the IC50 in assay [1], in assay [2] and in assay [3] were 180 nM, 8200 nM and 439 nM, respectively. The “Ratio THP(cGAMP) IC50/THP(vir) IC50” value in assay [2] came to 45.

Regarding `C[C@H]1CN2CC[C@@H]1n1c(nc3ccccc31)O[C@H]1C[C@@H](C(=O)O)N(C1)c1nc(nc3c1oc1cc(Cl)ccc13)CCOCCCC2=O` [Example 1.07], the IC50 in assay [1] was 6.5 nM; in assay [2], above 10000 nM; in assay [3], 13 nM. Besides, the “Ratio THP(cGAMP) IC50/THP(vir) IC50” value in assay [2] was above 1541.

Regarding `O=C(O)[C@@H]1C[C@H]2CN1c1nc(nc3c1oc1ccccc13)COCCCC(F)(F)C(=O)N1CCC(CC1)n1c(nc3ccccc31)O2` [Example 8.01], the IC50 was 39 nM in assay [1], above 10000 nM in assay [2] and 35 nM in assay [3]. Besides, the “Ratio THP(cGAMP) IC50/THP(vir) IC50” value in assay [2] came to 255.

Turning to `C[C@H]1CN2CC[C@@H]1n1c(nc3cc(Cl)ccc31)O[C@H]1C[C@@H](C(=O)O)N(C1)c1nc(nc3c1oc1cc(F)ccc13)CCCCOCC2=O` [Example 1.09], the IC50 is 4.3 nM in assay [1], above 10000 nM in assay [2] and 2 nM in assay [3]. Moreover, the “Ratio THP(cGAMP) IC50/THP(vir) IC50” value in assay [2] amounted to 4305.

As to `C[C@H]1CN2CC[C@@H]1n1c(nc3cccc(Cl)c31)O[C@H]1C[C@@H](C(=O)O)N(C1)c1nc(nc3c1oc1ccccc13)CC(=O)NCCCC2=O` (racemic) [Example 2.01, (12S,14S)-4-chloro-37-methyl-29,34-dioxo-11,18-dioxa-2,9,15,26,30,35,40-heptaazaoctacyclo[33.2.2.1^12,15.1^16,27.0^2,10.0^3,8.0^17,25.0^19,24]hentetraconta-3,5,7,9,16(40),17(25),19(24),20,22,26-decaene-14-carboxylic acid], the IC50 in assay [1] is 11 nM; in assay [2] it was above 10000 nM; in assay [3] it was 35 nM. Moreover, the “Ratio THP(cGAMP) IC50/THP(vir) IC50” value in assay [2] was above 948.

For the molecule `C[C@H]1CN2CC[C@@H]1n1c(nc3cc(Cl)ccc31)O[C@H]1C[C@@H](C(=O)O)N(C1)c1nc(nc3c1oc1ccccc13)C(F)(F)CCCCCC2=O` [Example 1.12], the IC50 in assay [1] worked out at 2.2 nM; in assay [2], 3600 nM; in assay [3] it was 5 nM. For the same molecule, the “Ratio THP(cGAMP) IC50/THP(vir) IC50” value in assay [2] stood at 1620.

For `C[C@H]1CN2CC[C@@H]1n1c(nc3ccc(Cl)cc31)O[C@H]1C[C@@H](C(=O)O)N(C1)c1nc(nc3c1oc1ccccc13)COCCCCC2=O` [Example 1.10], the results for the IC50 in assay [1], in assay [2] and in assay [3] were 13 nM, above 10000 nM and 12 nM, respectively. The “Ratio THP(cGAMP) IC50/THP(vir) IC50” value in assay [2] is listed as above 790.

As to `C[C@H]1CN2CC[C@@H]1n1c(nc3ccccc31)O[C@H]1C[C@@H](C(=O)O)N(C1)c1nc(nc3c1oc1ccccc13)CCCCCCC2=O` (racemic) [Example 1.24], the results for the IC50 in assay [1], in assay [2] and in assay [3] were 170 nM, 11000 nM and 86 nM, respectively. Further, the “Ratio THP(cGAMP) IC50/THP(vir) IC50” value in assay [2] was found to be 65.

Turning to `C[C@H]1CN2CC[C@@H]1n1c(nc3ccccc31)O[C@H]1C[C@@H](C(=O)O)N(C1)c1nc(nc3c1oc1ccccc13)C(F)(F)CCCCC(F)(F)C2=O` [Example 1.17], the IC50 is 13 nM in assay [1], 6600 nM in assay [2] and 8 nM in assay [3]. Moreover, in assay [2], the “Ratio THP(cGAMP) IC50/THP(vir) IC50” value is 519.

What is called IC50 is the point on the concentration scale where inhibition reaches its midpoint.
